# Measured values from patent publication US20240018138A1, “PYRIDO[4,3-b]INDOLE DERIVATIVES AND THEIR USE AS PHARMACEUTICALS” (Ventus Therapeutics U.S., Inc., priority 2020, published 2024).
# Target: h-cGAS (Homo sapiens (Human), UniProt Q8N884)
# Test: h-cGAS Kinase-Glo assay
# Assay type: biochemical
# Conditions: Kinase-Glo Max; 40 nM h-cGAS, 100 uM ATP, 100 uM GTP, 25 nM dsDNA, 2 h incubation
# Chain of h-cGAS (Q8N884 whole entry): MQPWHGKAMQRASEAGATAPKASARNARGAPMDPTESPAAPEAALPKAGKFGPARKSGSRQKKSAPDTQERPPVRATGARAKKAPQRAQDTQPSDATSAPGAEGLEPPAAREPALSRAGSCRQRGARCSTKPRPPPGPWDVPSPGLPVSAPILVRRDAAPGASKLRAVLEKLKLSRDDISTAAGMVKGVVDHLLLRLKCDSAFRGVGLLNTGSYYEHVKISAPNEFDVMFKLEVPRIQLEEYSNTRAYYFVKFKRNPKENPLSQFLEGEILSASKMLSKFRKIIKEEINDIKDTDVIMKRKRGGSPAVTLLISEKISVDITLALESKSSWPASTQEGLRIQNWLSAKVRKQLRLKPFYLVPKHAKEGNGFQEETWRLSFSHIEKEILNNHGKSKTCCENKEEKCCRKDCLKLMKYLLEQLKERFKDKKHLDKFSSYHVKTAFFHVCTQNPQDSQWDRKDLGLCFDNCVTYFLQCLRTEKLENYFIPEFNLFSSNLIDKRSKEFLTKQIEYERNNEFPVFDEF
row,SMILES,IC50 [nM]
1,COCC(=O)N1[C@H](C)Cc2[nH]c3c(Cl)c(Cl)ccc3c2[C@@H]1C [Compound 104],51.7
2,COCC(=O)N1CCc2[nH]c3c(Cl)c(Cl)cc(-c4ccn(C)n4)c3c2[C@H]1C [Compound 105],3820
3,COCC(=O)N1CCc2[nH]c3c(Cl)c(Cl)cc(-c4ccn(C)n4)c3c2[C@@H]1C [Compound 106],4550
4,COCC(=O)N1CCc2[nH]c3c(Cl)c(F)ccc3c2[C@H]1C [Compound 107],51.8
5,COCC(=O)N1[C@@H](C)Cc2[nH]c3c(Cl)c(Cl)ccc3c2[C@@H]1C [Compound 108],62.3
6,COCC(=O)N1[C@H](C)Cc2[nH]c3c(Cl)c(Cl)ccc3c2[C@@H]1C [Compound 109],15.1
7,COCC(=O)N1Cc2c([nH]c3c(Cl)c(Cl)ccc23)C2CCCCC21 (centres unmarked) [Compound 110],2230
8,COCC(=O)N1Cc2c([nH]c3c(Cl)c(Cl)ccc23)C[C@@H]1C [Compound 111],401
9,COCC(=O)N1Cc2c([nH]c3c(Cl)c(Cl)ccc23)C[C@H]1C [Compound 112],236
10,COCC(=O)N1Cc2c([nH]c3c(Cl)c(Cl)ccc23)CC1Cc1ccccc1 (centres unmarked) [Compound 113],4230
11,COCC(=O)N1Cc2c([nH]c3c(Cl)c(Cl)ccc23)C[C@@H]1C(C)C [Compound 114],718
12,COCC(=O)N1Cc2c([nH]c3c(Cl)c(Cl)ccc23)C[C@H]1C(F)(F)F [Compound 115],1380
13,COCC(=O)N1Cc2c([nH]c3c(Cl)c(Cl)cc(-c4ccn(C)n4)c23)C[C@H]1C [Compound 116],157
14,COCC(=O)N1Cc2c([nH]c3c(Cl)c(Cl)cc(-c4ccn(C)n4)c23)C[C@@H]1C [Compound 117],221
15,COCC(=O)N1Cc2c([nH]c3c(F)c(Cl)ccc23)C[C@@H]1C [Compound 118],316
16,CC[C@H]1Cc2[nH]c3c(Cl)c(Cl)ccc3c2CN1C(=O)COC [Compound 119],470
17,COCC(=O)N1Cc2c([nH]c3c(F)c(Cl)ccc23)C[C@H]1C [Compound 120],361
18,COCC(=O)N1Cc2c([nH]c3c(Br)c(Cl)ccc23)C[C@H]1C [Compound 121],7630
19,COCC(=O)N1Cc2c([nH]c3c(Cl)c(Br)ccc23)C[C@H]1C [Compound 122],205
20,COCC(=O)N1Cc2c([nH]c3c(Br)c(Cl)ccc23)C[C@@H]1C [Compound 123],133
21,COCC(=O)N1Cc2c([nH]c3c(Cl)c(F)ccc23)C[C@H]1C [Compound 124],1330
22,COCC(=O)N1Cc2c([nH]c3c(Cl)c(C)ccc23)C[C@@H]1C [Compound 125],756
23,COCC(=O)N1Cc2c([nH]c3c(F)c(Br)ccc23)C[C@H]1C [Compound 126],387
